The record followed here is the supplement of paper PMC4858399.

Bounds are passed on as bounds.

Assay [1] concerns Caenorhabditis elegans N2. As to the kind of experiment: lowest effective concentration for larval growth inhibition (size below effect threshold); higher = less potent. The conditions noted are these: exposure time 48 h. In a few lines: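 Worm size was taken as per-worm extinction on the Biosort, log-transformed and turned into well means. The larvae (C. elegans N2, L1 stage, 50 per 96-well) had spent 48 h at 20°C in K-medium with killed bacteria, 1% DMSO and 0.5, 1, 5, 10, 50, 100 or 200 µM chemical. The lowest effective concentration marks the first dose where the plate-adjusted mean size drops under a cutoff and remains under it at every higher dose; the cutoff is 5.665.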

In assay [2] the test system is Caenorhabditis elegans N2. In words: mean nematode size ln(EXT) after 48 h, plate-adjusted (DMSO control set to 6) (ln(EXT), control-adjusted); higher = larger nematodes / less growth inhibition. The conditions noted are these: exposure time 48 h. In a few lines:
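Synchronised C. elegans N2 L1 larvae were grown for 48 h at 20°C in K-medium containing killed OP50, 1% DMSO and 0.5–200 µM chemical, at 50 per well and 4–6 wells per treatment. The Biosort recorded extinction for each worm, and a growth model removed debris. Worm size was obtained by natural-logging these values and averaging them per well. For plate adjustment, the vehicle control mean was subtracted and 6 was added.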

Turning to `Cc1ccc(N)cc1O` [5-Amino-o-cresol], in assay [1], the lowest effective concentration was > 200 µM. The “mean nematode size ln(EXT) (ln)” value in assay [2] (0.5 µM) stood at 5.44; in assay [2] (1 µM) it was 5.57; in assay [2] (5 µM) it was 5.55; in assay [2] (10 µM), 5.6; in assay [2] (50 µM), 5.74; in assay [2] (100 µM) it was 5.75. Moreover, the “mean nematode size ln(EXT) (ln)” value in assay [2] (200 µM) came to 5.8.
On to `CCCCCCCCO` [1-Octanol], for which, in assay [1], the lowest effective concentration is > 200 µM. Moreover, the “mean nematode size ln(EXT) (ln)” value stood at 6.08 in assay [2] (0.5 µM); 5.99 in assay [2] (1 µM); 6.03 in assay [2] (5 µM); 6.07 in assay [2] (10 µM); 5.95 in assay [2] (50 µM); 5.95 in assay [2] (100 µM). Also, the “mean nematode size ln(EXT) (ln)” value in assay [2] (200 µM) amounted to 5.81.
As for `O=C(O)C(Cl)(Cl)Cl` [Trichloroacetic acid], the lowest effective concentration in assay [1] was > 200 µM. For the same compound, the “mean nematode size ln(EXT) (ln)” value was found to be 5.84 in assay [2] (0.5 µM); 5.85 in assay [2] (1 µM); 5.86 in assay [2] (5 µM); 5.91 in assay [2] (10 µM); 5.89 in assay [2] (50 µM); 5.91 in assay [2] (100 µM). Moreover, the “mean nematode size ln(EXT) (ln)” value in assay [2] (200 µM) was determined as 5.67.
Turning to `CN(C)C(=O)Cl` [Dimethylcarbamoyl chloride], in assay [1], the lowest effective concentration was > 200 µM. For the same compound, the “mean nematode size ln(EXT) (ln)” value came to 5.77 in assay [2] (0.5 µM); 5.81 in assay [2] (1 µM); 5.82 in assay [2] (5 µM); 5.71 in assay [2] (10 µM); 5.84 in assay [2] (50 µM); 5.9 in assay [2] (100 µM). Besides, the “mean nematode size ln(EXT) (ln)” value in assay [2] (200 µM) is 5.73.
For `CC(=O)C1C(=O)C=C(C)OC1=O` (stereo unspecified) [Sodium dehydroacetate], the lowest effective concentration in assay [1] was > 200 µM. In addition, the “mean nematode size ln(EXT) (ln)” value in assay [2] (0.5 µM) was determined as 5.99; in assay [2] (1 µM), 5.95; in assay [2] (5 µM), 5.97; in assay [2] (10 µM) it was 5.86; in assay [2] (50 µM) it was 5.94; in assay [2] (100 µM) it was 5.93. For the same compound, the “mean nematode size ln(EXT) (ln)” value in assay [2] (200 µM) stood at 5.72.
With `Oc1ccccc1Cl` [2-Chlorophenol], in assay [1], the lowest effective concentration is > 200 µM. Further, the “mean nematode size ln(EXT) (ln)” value in assay [2] (0.5 µM) worked out at 5.99; in assay [2] (1 µM), 5.99; in assay [2] (5 µM), 6.06; in assay [2] (10 µM) it was 6.11; in assay [2] (50 µM), 6.21; in assay [2] (100 µM), 6.13. Moreover, in assay [2] (200 µM), the “mean nematode size ln(EXT) (ln)” value was determined as 5.71.
In the case of `CN1COCN(Cc2cnc(Cl)s2)/C1=N\[N+](=O)[O-]` [Thiamethoxam], the lowest effective concentration in assay [1] is > 200 µM. Also, the “mean nematode size ln(EXT) (ln)” value in assay [2] (0.5 µM) stood at 5.81; in assay [2] (1 µM), 5.7; in assay [2] (5 µM) it was 5.73; in assay [2] (10 µM), 5.88; in assay [2] (50 µM), 5.8; in assay [2] (100 µM), 5.88. The “mean nematode size ln(EXT) (ln)” value in assay [2] (200 µM) worked out at 5.91.
In the case of `CC1(C)C(=O)NC(=O)N1CO` [1-(Hydroxymethyl)-5,5-dimethylhydantoin], the lowest effective concentration in assay [1] is > 200 µM. Also, the “mean nematode size ln(EXT) (ln)” value was 5.87 in assay [2] (0.5 µM); 6.04 in assay [2] (1 µM); 5.96 in assay [2] (5 µM); 5.91 in assay [2] (10 µM); 5.91 in assay [2] (50 µM); 5.85 in assay [2] (100 µM). The “mean nematode size ln(EXT) (ln)” value in assay [2] (200 µM) was 5.69.
For the compound `CCOP(=O)(OCC)Oc1cc(C)nc(C(C)C)n1` [Diazoxon], in assay [1], the lowest effective concentration was > 200 µM. The “mean nematode size ln(EXT) (ln)” value in assay [2] (0.5 µM) was 6.19; in assay [2] (1 µM), 6.09; in assay [2] (5 µM), 6.08; in assay [2] (10 µM) it was 6.06; in assay [2] (50 µM), 6.05; in assay [2] (100 µM), 6.1. The “mean nematode size ln(EXT) (ln)” value in assay [2] (200 µM) amounted to 5.93.
For `C#CCN1C(=O)COc2cc(F)c(N3C(=O)C4=C(CCCC4)C3=O)cc21` [Flumioxazin], in assay [1], the lowest effective concentration is > 200 µM. In addition, the “mean nematode size ln(EXT) (ln)” value in assay [2] (0.5 µM) came out at 5.98; in assay [2] (1 µM), 5.91; in assay [2] (5 µM), 5.92; in assay [2] (10 µM) it was 5.99; in assay [2] (50 µM), 5.98; in assay [2] (100 µM), 5.87. The “mean nematode size ln(EXT) (ln)” value in assay [2] (200 µM) was determined as 6.
In the case of `C[C@@H](Oc1ccc(CNC(=O)c2cccnc2Oc2ccc3c(c2)OCO3)c(F)c1)C(=O)O`, the lowest effective concentration in assay [1] was > 200 µM. Moreover, the “mean nematode size ln(EXT) (ln)” value in assay [2] (0.5 µM) was 5.79; in assay [2] (1 µM) it was 5.84; in assay [2] (5 µM), 5.86; in assay [2] (10 µM), 5.84; in assay [2] (50 µM), 5.92; in assay [2] (100 µM) it was 5.86. Also, the “mean nematode size ln(EXT) (ln)” value in assay [2] (200 µM) worked out at 5.72.
For `OCc1ccccc1` [Benzyl alcohol], the lowest effective concentration in assay [1] is > 200 µM. Moreover, the “mean nematode size ln(EXT) (ln)” value is 5.85 in assay [2] (0.5 µM); 5.94 in assay [2] (1 µM); 5.9 in assay [2] (5 µM); 5.84 in assay [2] (10 µM); 5.95 in assay [2] (50 µM); 5.93 in assay [2] (100 µM). Further, the “mean nematode size ln(EXT) (ln)” value in assay [2] (200 µM) worked out at 5.81.
